Laboratory results: article PMC11313435, “Identification of Antioxidant Methyl Derivatives of Ortho-Carbonyl Hydroquinones That Reduce Caco-2 Cell Energetic Metabolism and Alpha-Glucosidase Activity” (International Journal of Molecular Sciences, 2024)
Entries after “also recorded” stand apart in the source; their conditions may differ.

Columns and labels:
[1] = tested on: Caco-2 cells; experiment: Extracellular acidification rate and oxygen consumption rate in real time (Seahorse XFe96); format: cell-based, human; conditions: Caco-2, 100 µM; for Effect on max OCR: 24 h (Figures 3C, 4A-D); for Effect on glycolysis (ECAR) / Effect on glycolysis, cluster in dendrogram / Effect on basal mitochondrial OCR: 24 h; for Effect on glycolysis (ECAR): compared to control (Figures 3B, 4E-H); for Effect on glycolysis, cluster in dendrogram: clusters of Figure 3C; for Effect on basal mitochondrial OCR: compared to control (Figures 3B, 4A-D); for Effect on proton leak-driven OCR: 24 h (Figure 4A-D)
Experimental: We previously described how ortho-carbonyl hydroquinone scaffolds inhibit oxidative phosphorylation in breast cancer cells. Since the reduction in glucose utilization and metabolism in intestinal cells is a promising target for T2DM treatment, the effect of these compounds on mitochondrial respiration and glycolysis in Caco-2 cells was determined. […] The effect of ortho-carbonyl hydroquinone series (100 µM) on five parameters of mitochondrial respiration (basal OCR, max OCR, spare capacity, ATP-linked OCR, and proton leak-driven OCR), and two of glycolysis (glycolytic capacity and glycolysis), is represented in a dendrogram (Figure 3C). […] OCR: compounds 1, 6, 7, and 9. […] No correlations between OCR and ECAR parameters, α-glucosidase activity inhibition, or ORAC were observed (Supplementary Figure S1).
In contrast, compound 10 increases the proton leak-OCR and decreases max OCR (Figure 4A–D).
To analyze the extracellular acidification rate (ECAR), Caco-2 cells (10,000 cells/well) were seeded on XFe96 V3-PS multi-well plates and kept for 24 h at 37 °C in 5% CO2 with a DMEM culture medium supplemented with FBS. After 24 h, the cells were stimulated by compounds at 100 μM for 24 h. Then, the culture medium was replaced with assay media (unbuffered DMEM without red phenol, with 4 mM glutamine and 10 mM glucose, pH = 7.4) 1 h before the assay. Glycolysis was evaluated by the sequential injection of 10 mM glucose, 1 µM oligomycin, and 100 mM 2-deoxy-D-glucose (2-DG), and ECAR was analyzed using specific excitation and emission wavelengths of protons (470/530 nm). To study the mitochondrial function, the sequential injection of 1 μM oligomycin, 250 nM FCCP, 1 μM rotenone, and 1 μM antimycin A was added. The oxygen consumption rate (OCR) measurements were made with the specific excitation and emission wavelengths of the fluorescent probes for oxygen (532/650 nm) using a Seahorse XFe96 Analyzer (Seahorse Agilent, USA), and OCR and ECAR data were normalized by protein content/well, which was determined using a BCA kit. Each experiment was performed at least in triplicate. The OCR/ECAR data analysis and dendrograms were performed using XLSTAT software (version 2023.2.1414, Lumivero, New York, NY, USA).

[2] = target: α-glucosidase; experiment: α-glucosidase inhibitory activity (p-nitrophenyl α-D-glucopyranoside substrate); format: biochemical; conditions: for IC50: pH 6.9, 37 °C, 15 min, mean ± SD of three experiments, read-out: Inhibition of α-Glucosidase Activity IC50; for pIC50 (α-glucosidase): pIC50 = −log[IC50], Figure 2A
Experimental: The inhibition of α-glucosidase was determined following a previous method [62] using p-nitrophenyl α-D-glucopyranoside as a substrate. The reaction mixture contained 160 µL of 0.1 M sodium phosphate buffer (pH = 6.9), 5 µL of enzyme (5.46 U/mL), and polyphenolic extract (0.17–1.36 µg/mL). After the pre-incubation of the reaction mixture on ice for 5 min, the enzyme reaction was started by adding 5 µL of 25 mM p-nitrophenyl α-D-glucopyranoside into this mixture. The reaction was incubated for 15 min at 37 °C. Then, 80 µL of 0.2 M sodium carbonate was added. The absorbance was measured at 405 nm in a microplate reader (Biotek ELx808, Agilent, Santa Clara, CA, USA). Enzyme inhibition was calculated using the following equation: % inhibition = (A0 − As)/A0 × 100, where A0 is the absorbance of the control (blank, without extract) and As is the absorbance in presence of the extract. IC50 values denote the µg GAE/mL required to inhibit the enzyme by 50%.

[3] = ORAC assay (oxygen radical absorbance capacity, ORAC-FL); conditions: radical scavenging against peroxyl radicals; mean ± SD of three experiments
Experimental: The radical-scavenging activities of the hydroquinone series against peroxyl radicals were assessed (ORAC assays). […] Similarly, for the series with the gem-diethyl group on ring B (compounds 6–10), compound 6 presents the highest antioxidant capacity (7.0 + 0.3 mol TE/mol compound). […] The replacement of the gem-dimethyl with the gem-diethyl group also decreases the antioxidant capacity.
The antioxidant activity was determined by ORAC (oxygen radical absorbance capacity) assays. Briefly, the antioxidant capacity for ORAC-FL was estimated by measuring the changes in fluorescence after 120 min of reaction with the radical. Assays were performed using a 96-well microplate in a Synergy H1 hybrid multi-mode microplate reader (Biotek, Winooski, VT, USA), and the results were expressed as µmol Trolox 100 g^−1 DW. Three replicates were accomplished for each analysis.

[4] = tested on: Caco-2 cells; experiment: MTT assay, cell proliferation; format: cell-based, human; conditions: Caco-2, 24 h treatment, 1-100 µM (Figure 3A)
Experimental: We evaluate the effect of ortho-carbonyl hydroquinones 1–10 on the intestinal Caco-2 cell line at 24 h of treatment.
Caco-2 cells were grown in Dulbecco’s modified Eagle’s Medium/Nutrient Mixture F-12 (D-MEM/F-12), supplemented with 5% fetal bovine serum (FBS), penicillin (100 IU/mL), streptomycin (100 μg/mL), and nonessential amino acid solution 1% (GIBCO, Thermo Fisher Scientific, Grand Island). The culture media contained no exogenous pyruvate supplementation, and the cells were maintained in a humidified atmosphere at 37 °C and 5% CO2.
The cell proliferation was determined using the MTT assay. The cells were incubated in 96-well plates at 7000 cells per well and incubated for 24 h. The cells were treated for 24 h with compounds (1, 5, 10, 30, 50, and 100 μM). After treatment, the culture medium was removed, and the cells were incubated with MTT for 1 h at 37 °C. Finally, 100 μL of DMSO was added and measured by spectrophotometry at 570 nm, as previously described.

[5] = tested on: Caco-2 cells; experiment: Menadione-induced cytosolic (DHE) and mitochondrial (MitoSOX) ROS by flow cytometry; format: cell-based, human; conditions: Caco-2, 100 and 200 µM for 24 h, then 25 µM menadione 1 h; for Effect on menadione-induced mitochondrial ROS production: MitoSOX Red
Experimental: Using menadione as an ROS inducer, the preventive effect of compounds 5 and 10 on mitochondrial and cytosolic ROS production was evaluated. No changes in the mitochondrial ROS production were observed (Figure 4I).
The mtROS and ROS levels were measured using MitoSOX® Red Mitochondrial Superoxide (Invitrogen, Carlsbad, CA, USA) and Invitrogen™ Dihydroethidium (Hydroethidine, DHE) probes, respectively. The Caco-2 cells were incubated in 12-well plates at 50,000 cells for 24 h. The cells were treated with compounds 5 and 10 at 100 μM and 200 μM for 24 h. Next, the cells were incubated with 25 μM menadione 25 μM for 1 h, and then the cells were washed with PBS and incubated with MitoSOX Red® (5 µM) or DHE (5 μM) for 30 min. Then, they were recollected, and washed, and the fluorescence was detected by flow cytometry according to Urra et al., 2018 [31].

IC50 [2] [µM] | pIC50 (α-glucosidase) [2] | melting point [°C] | SMILES | Effect on max OCR [1] | Effect on glycolysis (ECAR) [1] | Effect on glycolysis, cluster in dendrogram [1] | ORAC [3] [mol TE/mol Compound] | Effect on basal mitochondrial OCR [1] | Effect on proton leak-driven OCR [1] | Effect on MTT reduction [4] | Effect on menadione-dependent cytosolic ROS production ([5]; DHE) | Effect on menadione-induced mitochondrial ROS production [5] | Effect on max OCR ([1]; listed as compound 10)
245 | 3.61 |  | Cc1c(C)c(O)c2c(c1O)C(=O)C=CC2(C)C [Compound 4, 5,8-Dihydroxy-4,4,6,7-tetramethylnaphthalen-1(4H)-one] | reduced effect on max OCR | increases the glycolysis | glycolysis inhibitors | 1.05 ± 0.03 | lacking effect on OCR |  |  |  |  | 
 | 3.72 |  | CC1(C)C=CC(=O)c2c(O)ccc(O)c21 [Compound 1, 5,8-Dihydroxy-4,4-dimethylnaphthalen-1(4H)-one] | strong inhibitory effect on max. OCR | increases ECAR | glycolysis enhancers |  | reduces the basal mitoOCR |  |  |  |  | 
110 | 3.96 |  | CCC1(CC)C=CC(=O)c2c(O)cc(C)c(O)c21 [Compound 7, 4,4-Diethyl-5,8-dihydroxy-6-methylnaphthalen-1(4H)-one] | strong inhibitory effect on max. OCR | increases the glycolysis | glycolysis enhancers | 7.2 ± 0.4 | lacking effect on OCR |  |  |  |  | 
140 | 3.85 |  | Cc1cc(O)c2c(c1O)C(C)(C)C=CC2=O [Compound 2, 5,8-Dihydroxy-4,4,6-trimethylnaphthalen-1(4H)-one] | reduced effect on max OCR | reduces the glycolysis | glycolysis inhibitors | 5.5 ± 0.2 |  |  |  |  |  | 

The remaining lines, values behind:

SMILES | IC50 [2] [µM] | pIC50 (α-glucosidase) [2] | melting point [°C] | Effect on max OCR [1] | Effect on glycolysis (ECAR) [1] | Effect on glycolysis, cluster in dendrogram [1] | ORAC [3] [mol TE/mol Compound] | Effect on basal mitochondrial OCR [1] | Effect on proton leak-driven OCR [1] | Effect on MTT reduction [4] | Effect on menadione-dependent cytosolic ROS production ([5]; DHE) | Effect on menadione-induced mitochondrial ROS production [5] | Effect on max OCR ([1]; listed as compound 10)
CCC1(CC)C=CC(=O)c2c(O)c(C)cc(O)c21 [Compound 8, 4,4-Diethyl-5,8-dihydroxy-7-methylnaphthalen-1(4H)-one] | 60 | 4.20 | 198.2 | reduced effect on max OCR | reduces the glycolysis | glycolysis inhibitors | 5.9 ± 0.3 |  |  |  |  |  | 
Cc1cc(O)c2c(c1O)C(=O)C=CC2(C)C [Compound 3, 5,8-Dihydroxy-4,4,7-trimethylnaphthalen-1(4H)-one] | > 500 | 3.26 | 204 | reduced effect on max OCR | reduces the glycolysis | glycolysis inhibitors | 3.9 ± 0.1 |  |  |  |  |  | 
CCC1(CC)C=CC(=O)c2c(O)c(C)c(C)c(O)c21 [Compound 9, 4,4-Diethyl-5,8-dihydroxy-6,7-dimethylnaphthalen-1(4H)-one] | > 500 | 3.29 | 174.9 to 179.8 | strong inhibitory effect on max. OCR | reduces the glycolysis | glycolysis enhancers | 0.83 ± 0.03 |  |  |  |  |  | 
CC1=CC(C)(C)c2c(O)c(C)c(C)c(O)c2C1=O [Compound 5, 5,8-Dihydroxy-2,4,4,6,7-pentamethylnaphthalen-1(4H)-one] | 103 | 3.98 | 199.9 to 201.5 | reduced effect on max OCR; also recorded: reduces | reduces the glycolysis; also recorded: significantly reduce the glycolysis | glycolysis inhibitors | 0.37 ± 0.01 | reduces | without affecting | significantly increased the MTT reduction | significantly prevented | No changes | 
CCC1(CC)C=C(C)C(=O)c2c(O)c(C)c(C)c(O)c21 [Compound 10, 4,4-Diethyl-5,8-dihydroxy-2,6,7-trimethylnaphthalen-1(4H)-one] | 78 | 4.10 |  | reduced effect on max OCR | reduces the glycolysis; also recorded: significantly reduce the glycolysis | glycolysis inhibitors | 0.10 ± 0.01 |  | increases | significantly increased the MTT reduction |  | No changes | decreases
CCC1(CC)C=CC(=O)c2c(O)ccc(O)c21 [Compound 6, 4,4-Diethyl-5,8-dihydroxynaphthalen-1(4H)-one] | 195 | 3.71 |  | strong inhibitory effect on max. OCR | increases ECAR | glycolysis enhancers | 7.0 ± 0.3 | reduces the basal mitoOCR |  | decreased the MTT reduction |  |  | 
